Laboratory results from patent publication US20070231296A1, “Method of Combating Fruit Flies” (priority 2004, published 2007).

Assays:
Bactrocera tryoni = assay: Large field cage trial with a paper mâché block containing fipronil plus Cue-lure; format: in vivo; conditions: field cage 4×4×2.5 m, single paper mâché block with 20 milligrams of fipronil plus Cue-lure per cage
From the text: In a large field cage (4×4×2.5 m) trial, a single block of paper mâché containing 20 milligrams of fipronil plus Cue-lure was used per cage.
After 2 days of exposure, over 90% mortality of male and female Bactrocera tryoni was achieved, after 3 days even over 95% mortality of males and females.
Dead females were collected from the floor of the cage and dissected.

fruit flies = assay: Contact of male fruit flies with AMULET parapheromone stations and transfer to females; format: in vivo; conditions: AMULET station, 20 mg fipronil per station; depending on length of contact
Description: AMULET™ parapheromone stations use fipronil at a very low concentration (20 mg per station) that has no repulsion to male flies landing on the device allowing them to freely imbibe from its surface and walk over it for long periods. Female fruit flies of the same species are not attracted by the pheromone and do no show any interest in the stations.
Through this contact they contaminate the integument of the female that subsequently dies the following day.

Structure (SMILES): N#Cc1nn(-c2c(Cl)cc(C(F)(F)F)cc2Cl)c(N)c1[S+]([O-])C(F)(F)F (stereo not drawn) [fipronil]
- mortality of male and female Bactrocera tryoni (Bactrocera tryoni; after 2 days of exposure): over 90%
- mortality of males and females (Bactrocera tryoni; after 3 days): over 95%
- time after contact until male fruit flies die (fruit flies): 3 to 48 h
